Data set [1] relates to mouse embryo fibroblast (NIH3T3). As to the kind of experiment: sulforhodamine B cell cytotoxicity assay, NIH3T3 non-cancer cells. It is filed as cell-based. As to conditions: 48 h of exposure. How it is done:
(§1) The human cancer cell lines—KB (oral squamous cell carcinoma). C33A (cervical carcinoma), MCF-7 (breast adenocarcinoma), A549 (lung carcinoma) and mouse embryo fibroblast (NIH3T3) were obtained from American Type Culture Collection (ATCC), USA. These cells were grown in recommended media supplemented with 10% FBS, 50 μg/mL gentamycin and 2.5 μg/mL amphotericin B in a 5% CO2 humidified atmosphere at 37° C. Cells below 15 passage level were used for this study. A colorimetric sulforhodamine B assay was used for the measurement of cell cytotoxicity. 1×10^4 cells (in 180 μL) were added to each well of 96-well plate and incubated overnight to allow for cell attachment. Cells were then treated with serial two-fold dilutions of test compounds (100 to 1.6 μM) and untreated cells receiving the same volume of medium served as control. After 48 h of exposure, cells were fixed with ice-cold 50% TCA, stained with 0.4% (w/v) SRB in 1% acetic acid, washed and air dried. Bound dye was dissolved in 150 μL of 10 mM tris base. The plates were read at 540 nm absorbance on plate reader (Polarstar Galaxy, BMG, Germany). The cytotoxic effects of compounds were calculated as % inhibition in cell growth as per the formula […].

The test system of data set [2] is MCF-7 (breast adenocarcinoma). Briefly: sulforhodamine B cell cytotoxicity assay, MCF-7. The format is cell-based. As to conditions: Homo sapiens, MCF7; Table 2; SRB assay, 48 h of exposure. Here is the method:
as §1
A general note: Sulforhodamine B stains cellular protein and so reports cell mass.

The subject of another data set is A549 (lung carcinoma). As to the kind of experiment: sulforhodamine B cell cytotoxicity assay, A549. The format is cell-based. The following applies: Homo sapiens, Table 2, SRB assay, 48 h of exposure. Here is the method:
as §1

Data set [3] concerns KB (oral squamous cell carcinoma). Briefly: sulforhodamine B cell cytotoxicity assay, KB. As to conditions: Homo sapiens; Table 2; SRB assay, 48 h of exposure. It is filed as cell-based. Here is the method: as §1
The subject of data set [4] is C33A (cervical carcinoma). Briefly: sulforhodamine B cell cytotoxicity assay, C33A. The format is cell-based, human. As to conditions: Homo sapiens, C-33-A, SRB assay, 48 h of exposure. Here is the method:
as §1

A short description of data set [5]: animal weight and overt toxicity in the xenograft study. The format is in vivo, SCID mice. As to conditions: ADR 2 mg/kg I.V. Q7dx3. How it is done: (§2) The in vivo efficacy studies were performed using human tumor xenografts in SCID mice. Human cervical cancer cells (HeLa) were injected subcutaneously (1×10^7 cells in 100 μl HBSS medium) on the right flank of each mouse. Tumor bearing mice were divided randomly into treatment groups and the treatment schedules began on day 7 of the xenograft. The test compound (S009-0131) was administered orally to each mouse at a daily dose of 100 mg/kg body weight, for 15 days. The standard anti-cancer drug Adriamycin (ADR) was used as ‘positive’ control and given to each mouse as an i.v. dose of 2 mg/kg body weight, Q7d×3 ([…]). The group of vehicle treated animals served as ‘negative’ control.
(§3) The tumor volume, body weight and signs of overt toxicity were monitored and recorded for the entire duration of the experiment (60 days). Tumor volumes were calculated using the formula (a×b2)/2, where a, b are two longest perpendicular diameters. Tumor growth was expressed in terms of relative tumor volume (RTV) which is the ratio of tumor volume on a particular day to the tumor volume on day 1 of the study. Tumor growth inhibition index (T/C) was calculated as follows: T/C=Average RTV of test group mice/Average RTV of control group mice.

Data set [6] relates to HeLa Human cervical cancer cells. As to the kind of experiment: human tumor xenograft in SCID mice, tumor growth. As to conditions: ADR 2 mg/kg I.V. Q7dx3. The format is in vivo. Here is the method: as §2, §3
Where [7] appears, read: Table 2, SRB assay, read-out: IC50 NIH3T3 (Non-cancer, fibroblast).
Where [8] appears, read: Table 2, read-out: IC50 C33A (Cervical).

Like-named read-outs stand apart in the source and are kept apart here.

Usually melting point stands for the temperature, or range, at which the solid turns liquid. `CCC(C)c1cc(/C=C/C(=O)c2ccc(C)cc2)cc2cc(C(=O)NC)c(=O)oc12` (stereo not drawn) [Example S010-1994, (E)-8-sec-butyl-N-methyl-2-oxo-6-(3-oxo-3-p-tolylprop-1-enyl)-2H-chromene-3-carboxamide] registered a melting point of 215 to 216 °C.

What is called IC50 is the concentration at which inhibition is half-maximal. For the compound `CCNC(=O)c1cc2cc(/C=C/C(=O)c3ccc(C)cc3)cc(C(C)CC)c2oc1=O` (stereo not drawn) [Example S010-1995, (E)-8-sec-butyl-N-ethyl-2-oxo-6-(3-oxo-3-p-tolylprop-1-enyl)-2H-chromene-3-carboxamide], the melting point fell in the range of 162 to 163 °C. Besides, the IC50 in data set [1] (setting [7]) was over 150 µM. The compound further displayed an IC50 in data set [2] of 22.2 µM. In the data set on A549 (lung carcinoma), this compound showed a 50% inhibitory concentration (IC50) of over 150 µM. This compound gave an IC50 in data set [3] of 10.7 µM. Also, the IC50 in data set [4] (setting [8]) came out at 5.56 µM.

Consider `CCC(C)c1cc(/C=C/C(=O)c2ccc(C)cc2)cc(C=O)c1O` (stereo not drawn) [Example S008-0392, (E)-3-sec-butyl-2-hydroxy-5-(3-oxo-3-p-tolylprop-1-enyl)benzaldehyde], for which the IC50 was determined as 129 µM in data set [1] (Table 1, SRB assay, read-out: IC50 NIH3T3 (mouse fibroblast)) and 10.2 µM in data set [4] (Table 1, read-out: IC50 C33A (cervical cancer)).

Compound `CCC(C)c1cc(/C=C/C(=O)c2cc(OC)c(OC)c(OC)c2)cc2cc(C(=O)OC)c(=O)oc12` (stereo not drawn) [Example S010-2001, (E)-methyl 8-sec-butyl-2-oxo-6-(3-oxo-3-(3,4,5-trimethoxyphenyl)prop-1-enyl)-2H-chromene-3-carboxylate] showed a melting point of 138 to 139 °C. Moreover, the IC50 in data set [1] (setting [7]) was over 150 µM. In data set [2], this compound yielded an IC50 of 10.2 µM. Also, half-maximal inhibition in the data set on A549 (lung carcinoma) (IC50) was put at 3.68 µM. The IC50 in data set [3] came out at 3.1 µM. Further, in data set [4] (setting [8]), the concentration for half-maximal inhibition (IC50) is 2.56 µM.

In turn, `CCOC(=O)c1cc2cc(C=CC(=O)c3ccccc3)cc(C(C)CC)c2oc1=O` (stereo not drawn) [Example S009-0132, Ethyl 8-sec-butyl-2-oxo-6-(3-oxo-3-phenylprop-1-enyl)-2H-chromene-3-carboxylate] showed a melting point of 155 to 156 °C. Further, the IC50 in data set [1] (setting [7]) is over 150 µM. The compound also registered an IC50 in data set [2] of 88.1 µM. This compound also had an IC50 with A549 (lung carcinoma) of 12.9 µM. Besides, half-maximal inhibition in data set [3] (IC50) was put at 10.5 µM. For the same compound, in data set [4] (setting [8]), the IC50 came to 8.12 µM.

`Cc1ccc(C(=O)/C=C/c2cc(C(C)(C)C)c3oc(=O)c(C(=O)O)cc3c2)cc1` [Example-9, (E)-8-tert-butyl-2-oxo-6-(3-oxo-3-p-tolylprop-1-enyl)-2H-chromene-3-carboxylic Acid] showed a melting point of 185 to 186 °C.

As to `CCC(C)c1cc(C=CC(=O)c2ccccc2)cc2cc(C(=O)OC)c(=O)oc12` (stereo not drawn) [Example S009-0133, Methyl 8-sec-butyl-2-oxo-6-(3-oxo-3-phenylprop-1-enyl)-2H-chromene-3-carboxylate], the melting point lay within 139 to 140 °C. In data set [1] (setting [7]), the IC50 is over 150 µM. The compound further displayed an IC50 in data set [2] of 11.4 µM. This compound also showed an IC50 in the data set with A549 (lung carcinoma) of 10.7 µM. For the same compound, the IC50 in data set [3] came to 13.4 µM. In addition, in data set [4] (setting [8]), the concentration for half-maximal inhibition (IC50) was 6.28 µM.

`CCC(C)c1cc(/C=C/C(=O)c2ccc(C)cc2)cc2cc(C(=O)N(CC)CC)c(=O)oc12` (stereo not drawn) [Example S010-1996, (E)-8-sec-butyl-N,N-diethyl-2-oxo-6-(3-oxo-3-p-tolylprop-1-enyl)-2H-chromene-3-carboxamide] came in with a melting point of 146 to 147 °C. Also, the IC50 in data set [1] (setting [7]) was over 150 µM. In data set [2], this compound showed an IC50 of under 7.01 µM. In the data set on A549 (lung carcinoma), this compound yielded an IC50 of 3.77 µM. In data set [3], this compound gave an IC50 of 3.55 µM. Besides, in data set [4] (setting [8]), the IC50 is 3.12 µM.

Turning to `CCC(C)c1cc(C=CC(=O)c2ccc(Cl)cc2)cc2cc(C(=O)OC)c(=O)oc12` (stereo not drawn) [Example S009-0136, Methyl 8-sec-butyl-6-(3-(4-chlorophenyl)-3-oxoprop-1-enyl)-2-oxo-2H-chromene-3-carboxylate], the melting point was in the range of 145 to 146 °C. Besides, in data set [1] (setting [7]), the IC50 was 42.4 µM. Besides, in data set [2], the IC50 stood at 10.8 µM. Besides, the IC50 with A549 (lung carcinoma) is 16.7 µM. Further, in data set [3], the IC50 stood at 28.2 µM. The IC50 in data set [4] (setting [8]) was determined as 5.9 µM.

In the case of `COC(=O)c1cc2cc(/C=C/C(=O)c3cc(OC)c(OC)c(OC)c3)cc(C(C)(C)C)c2oc1=O` [Example S010-2003, (E)-methyl 8-tert-butyl-2-oxo-6-(3-oxo-3-(3,4,5-trimethoxyphenyl)prop-1-enyl)-2H-chromene-3-carboxylate], the melting point was in the range of 145 to 146 °C. Also, the IC50 in data set [1] (setting [7]) is over 150 µM. Also, in data set [2], the IC50 was determined as 13.3 µM. The compound also had an IC50 in the data set on A549 (lung carcinoma) of 11.1 µM. This compound also came in with an IC50 in data set [3] of 8.3 µM. In addition, the IC50 in data set [4] (setting [8]) stood at 4.99 µM.

Take `COc1cccc2c1C(=O)c1c(O)c3c(c(O)c1C2=O)C[C@@](O)(C(=O)CO)C[C@@H]3O[C@H]1C[C@H](N)[C@H](O)[C@H](C)O1` [Doxorubicin, reference compound]: the “Average Animal weight” value in data set [5] (day 1) is reported as 20.7 grams; in data set [5] (day 5), 20.9 grams; in data set [5] (day 9) it was 20.6 grams; in data set [5] (day 12) it was 20.3 grams; in data set [5] (day 15) it was 19.6 grams; in data set [5] (day 19) it was 18.3 grams. The “Average Animal weight” value in data set [5] (day 22) amounted to 19.7 grams; in data set [5] (day 25) it was 19.9 grams; in data set [5] (day 29), 20.4 grams; in data set [5] (day 33) it was 20.6 grams; in data set [5] (day 37), 24.8 grams; in data set [5] (day 41) it was 21.8 grams. Besides, the “Average Animal weight” value in data set [5] (day 44) amounted to 22.1 grams; in data set [5] (day 51), 21.2 grams. The IC50 in data set [2] was 0.61 µM; with A549 (lung carcinoma) it was 0.52 µM; in data set [3], 0.22 µM; in data set [4] (setting [8]), 0.82 µM. The “RTV (relative tumor volume)” value in data set [6] (day 1) was found to be 1; in data set [6] (day 5), 0.69; in data set [6] (day 9) it was 0.72; in data set [6] (day 12) it was 0.92; in data set [6] (day 15), 1.39; in data set [6] (day 19), 1.65. Also, the “RTV (relative tumor volume)” value is 3.52 in data set [6] (day 22), 3.84 in data set [6] (day 25), 4.60 in data set [6] (day 29) and 4.69 in data set [6] (day 33). Besides, the “T/C (tumor growth inhibition index)” value came out at 1 in data set [6] (day 1); 0.53 in data set [6] (day 5); 0.44 in data set [6] (day 9); 0.47 in data set [6] (day 12); 0.43 in data set [6] (day 15); 0.45 in data set [6] (day 19). The “T/C (tumor growth inhibition index)” value in data set [6] (day 22) was 0.68; in data set [6] (day 25), 0.62; in data set [6] (day 29) it was 0.63; in data set [6] (day 33) it was 0.47; in data set [6] (day 37) it was 0.58; in data set [6] (day 41), 0.49. Moreover, the “T/C (tumor growth inhibition index)” value in data set [6] (day 44) and in data set [6] (day 51) was 0.43 in each case.

`CCOC(=O)c1cc2cc(C=CC(=O)c3ccc(Cl)cc3)cc(C(C)CC)c2oc1=O` (stereo not drawn) [Example S009-0135, Ethyl 8-sec-butyl-6-(3-(4-chlorophenyl)-3-oxoprop-1-enyl)-2-oxo-2H-chromene-3-carboxylate]: the IC50 was found to be 38.4 µM in data set [1] (setting [7]); 11.1 µM in data set [2]; 12.8 µM with A549 (lung carcinoma); 14.3 µM in data set [3]; 4.54 µM in data set [4] (setting [8]).

The values above are taken from patent US8815940B2, “Coumarin-chalcones as anticancer agents” (Council of Scientific & Industrial Research, priority 2010, dated 2014).
